ChEMBL document CHEMBL1125978 (Bioorg Med Chem Lett, 1991)

Legend:
SK-N-SH [1] = test: Phosphoinositide (PI) turnover was assessed by the ability to stimulate [3H]- inositol phosphate accumulation in human SK-N-SH neuroblastoma cells relative to carbachol; type: functional
[2] = molecular target: Muscarinic acetylcholine receptor
Description: Compound was evaluated for its ability to displace muscarinic antagonist [3H]cis-methyldioxolane in rat cortical tissue (RQNB binding assay), at 1.0 uM concentration

[3] = molecular target: T1, Muscarinic acetylcholine receptor M1 (Rattus norvegicus, UniProt P08482)
T1 sequence (P08482 whole entry): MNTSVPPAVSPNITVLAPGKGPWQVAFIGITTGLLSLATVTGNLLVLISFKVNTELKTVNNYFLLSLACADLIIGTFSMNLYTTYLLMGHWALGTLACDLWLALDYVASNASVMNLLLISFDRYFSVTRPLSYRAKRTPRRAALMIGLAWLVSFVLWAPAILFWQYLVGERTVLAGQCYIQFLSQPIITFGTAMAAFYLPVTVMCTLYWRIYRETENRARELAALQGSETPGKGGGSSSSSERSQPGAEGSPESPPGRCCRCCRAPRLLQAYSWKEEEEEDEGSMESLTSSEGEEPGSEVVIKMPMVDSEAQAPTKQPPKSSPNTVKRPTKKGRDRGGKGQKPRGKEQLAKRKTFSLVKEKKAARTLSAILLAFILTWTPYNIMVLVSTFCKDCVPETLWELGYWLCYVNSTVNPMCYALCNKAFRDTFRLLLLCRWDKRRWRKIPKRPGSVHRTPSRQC
Description: Compound was evaluated for the displacement of the muscarinic QNB in a genetically transformed rat cell line (m1c2) transfected with cloned m1 receptors (m1-QNBm1c2)

[4] = molecular target: Muscarinic acetylcholine receptor; remark: listed apart in the source
Description: Compound was evaluated for its ability to displace muscarinic agonist [3H]quinuclidinyl benzilate in rat cortical tissue (RCMD binding assay), at 0.1 uM concentration

[5] = molecular target: T2, Muscarinic acetylcholine receptor M2 (Rattus norvegicus, UniProt P10980); test: biochemical
T2 sequence (P10980 whole entry): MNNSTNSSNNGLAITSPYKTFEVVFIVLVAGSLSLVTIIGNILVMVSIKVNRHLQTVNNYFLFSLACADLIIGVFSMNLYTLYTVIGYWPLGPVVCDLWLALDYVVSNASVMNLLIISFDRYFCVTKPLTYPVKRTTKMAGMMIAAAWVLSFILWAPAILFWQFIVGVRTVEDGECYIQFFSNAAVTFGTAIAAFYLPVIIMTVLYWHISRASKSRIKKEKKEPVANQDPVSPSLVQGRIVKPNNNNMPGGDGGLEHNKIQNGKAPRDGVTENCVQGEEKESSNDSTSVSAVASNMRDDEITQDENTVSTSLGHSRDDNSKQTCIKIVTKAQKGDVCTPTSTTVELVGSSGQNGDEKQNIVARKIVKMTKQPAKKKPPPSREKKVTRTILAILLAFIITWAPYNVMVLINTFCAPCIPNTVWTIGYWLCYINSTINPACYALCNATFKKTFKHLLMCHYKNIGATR
Description: Compound was evaluated for the displacement of the muscarinic QNB in rat heart homogenate containing the pharmacologic M2 receptor (M2-QNB heart)

[6] = molecular target: T3, Muscarinic acetylcholine receptor (Rattus norvegicus) (UniProt P08482+P08483+P08485+P08911+P10980); details: 1.0 uM
[7] = molecular target: T3, Muscarinic acetylcholine receptor (Rattus norvegicus); details: 0.1 uM
SK-N-SH [8] = tested on: SK-N-SH

Compound | inhibition [6] | inhibition [7] | other results
CCN1C(=O)OC[C@@H]1Cc1cncn1C | – | – | PI turnover (SK-N-SH [1]): 16%; IC50 [2]: 8.9 µM; IC50 [3]: 12.7 µM; IC50 [4]: 0.043 µM; IC50 [5]: 30.9 µM
CN1C(=O)OC[C@@H]1Cc1c[nH]cn1 | 0% | 0% | –
CN1C(=O)OC[C@@H]1Cc1cncn1C | 2% | 11% | –
CCN1C(=O)OC[C@H]1Cc1c[nH]cn1 | 2% | 0% | –
C[N+](C)(C)CCOC(N)=O.[Cl-] [CARBACHOL] | – | – | PI turnover (SK-N-SH [8]): 100%
CCCN1C(=O)OC[C@@H]1Cc1c[nH]cn1 | 4% | 2% | –
CCN1C(=O)OC[C@@H]1Cc1c[nH]cn1 | 4% | 4% | –
CCN1C(=O)OC[C@H]1Cc1cn(C)cn1 | 1% | 0% | –
CCCN1C(=O)OC[C@@H]1Cc1cn(C)cn1 | 10% | 2% | –
CCN1C(=O)OC[C@H]1Cc1cncn1C | 0% | 6% | –
CCCN1C(=O)OC[C@@H]1Cc1cncn1C | – | – | IC50 [2]: 3300 µM; IC50 [4]: 73 µM
O=C1CCCN1CC#CCN1CCCC1 [OXOTREMORINE] | – | – | IC50 [3]: 0.36 µM; PI turnover (SK-N-SH [8]): 33%; IC50 [5]: 0.86 µM
